In patent US6342492B1, “Anti-viral triaza compounds and compositions” (The Research Foundation of State University of New York, priority 1995, dated 2002):
Where two headings read alike, the source gives them in different places.

Key:
[1] = tested on: Epstein Barr virus (EBV); test: Antiviral screening against Epstein Barr virus; assay type: cell-based; settings: human gammaherpesvirus 4; read-out: anti-EBV activity EC50
[2] = tested on: Varicella Zoster Virus; test: Plaque reduction assay for VZV (Ellen strain); assay type: cell-based; settings: Human alphaherpesvirus 3
Method: (§1) Additional antiviral testing was carried out to test the efficacy of compounds of the invention against human cytomegalovirus (HCMV) and another herpesvirus, Variecella Zoster Virus(VZV). The compounds tested were compound (1), the HCl salt of compound (1), Compounds 211, 43, 213 and 214.

[3] = Inhibition of cell proliferation (cytotoxicity) in herpesvirus screening; assay type: cell-based, human; settings: human, human foreskin fibroblast cells
[4] = tested on: Human Cytomegalovirus; test: Semi-automated CPE-inhibition assay for HCMV in human foreskin fibroblast cells; assay type: cell-based; settings: Human betaherpesvirus 5
Method: as §1

C=C1CN(S(=O)(=O)c2ccc(C)cc2)CCCN(C(=O)OCC)CCCN(S(=O)(=O)c2ccc(C)cc2)C1 [Compound 213, 9-(Ethyloxycarbonyl)-3-methylene-1,5-ditosyl-1,5,9-triazacyclododecane]
EC50 [1]: 6.7 µM
EC50 [2]: 170 µM
CC50 ([3]; inhibit cell proliferation by 50%, HCMV CPE-inhibition screen, read-out: Human Cytomegalovirus CC50): 167 µM
CC50 ([3]; inhibit cell proliferation by 50%, VZV screen, read-out: Varicella Zoster Virus CC50): > 180 µM
CC50 ([3]; with anti-EBV screen, read-out: CC50): > 180 µM
EC50 [4]: 3 µM
